Results as given in US9005651B2, “Sustained drug delivery system” (Tohoku University, priority 2009, dated 2015).

What was measured:
[1] = Implantation of capsule on the sclera of rabbit's eye (fluorescence of hydatoid, fundus camera, tissue); format: in vivo; conditions: 3 days after implantation
Procedure: A capsule (the collagen particle concentration of its porous PEG sheet: 500 mg/ml) packed with a PEG pellet of FA was implanted on the sclera of the eye of rabbits. One eye of each rabbit was used as a non-implantation control. The conjunctiva was incised 5 mm and the capsule was implanted therethrough into 2 to 15 mm of the corneal limbus. The capsule was fixed by suture. The conjunctiva was finally sutured to terminate the implantation. The hydatoid (100 μl) was collected every other week and the fluorescence intensity thereof was measured using a fluorescence plate reader. Using a fluorescence camera, the fluorochrome in the device implanted on the sclera and the distribution of the pigment slowly released were photographed. […] In FIG. 22, the fluorescences of the cell nucleus (blue fluorescence) and the model drug (green fluorescence) are observed. In FIG. 22, the mark * represents the position in which the PEG capsule was present. […] When the drug passes through RP, the drug is fed to RE. Because RP has a high barrier function, the pigment stops here and is concentrated.

[2] = Low molecular weight drug (FA) slow release from PEGDM:TEGDM sheets; format: physicochemical; conditions: PEGDM:TEGDM 100:0 to 0:100, capsules in PBS
Procedure: Sheets having changed mixing ratios of PEGDM (Mn 750) and TEGDM (Mw 286.3) were prepared to evaluate their low molecular weight drug slow-releasing capability. The low molecular weight drug used sodium fluorescein (FA, a fluorescent contrast agent clinically used) as a model. PEG sheets were prepared in the 6 patterns of PEGDM:TEGDM=100:0, 95:5, 90:10, 80:20, 50:50, and 0:100; FA was capsulated; and the capsules were immersed in PBS to measure the fluorescence intensity at regular intervals. […] The slow-releasing capability was irrespective of the presence of collagen particles.

For `O=C([O-])c1ccccc1-c1c2ccc(=O)cc-2oc2cc([O-])ccc12.[Na+].[Na+]` [FA, sodium fluorescein], the tissue fluorescence distribution [1] was “strong fluorescence was observed in the sclera (SC) and the subretina (RP)” and the “FA slow-releasing capability versus PEGDM:TEGDM ratio” value [2] was “increased mixing ratio of TEGDM suppressed the FA slow-releasing capability”.
